Results published in ChEMBL document CHEMBL4219252, “Synthesis, antimycobacterial activity and influence on mycobacterial InhA and PknB of 12-membered cyclodepsipeptides” (Bioorg Med Chem, 2018).
≈ marks a conversion by molar mass, not a printed value.

Key:
Type in all cases: functional, variant bovis BCG
[1] = system: Mycobacterium tuberculosis; experiment: Ratio of MIC for Mycobacterium bovis BCG harboring pATB45::inhA to MIC for Mycobacterium bovis BCG harboring pATB45
[2] = system: Mycobacterium tuberculosis; experiment: Antimycobacterial activity against Mycobacterium bovis BCG harboring pATB45::inhA after 48 hrs by resazurin microtiter assay
[3] = system: Mycobacterium tuberculosis; experiment: Antimycobacterial activity against wild type Mycobacterium bovis BCG harboring pATB45 after 48 hrs by resazurin microtiter assay
[4] = Mycobacterium tuberculosis, variant bovis BCG, 48 h, read-out: MIC

| SMILES | Ratio [1] | MIC [2, 4] | MIC [3, 4] | MIC [2] | MIC [3] |
| --- | --- | --- | --- | --- | --- |
| NNC(=O)c1ccncc1 [ISONIAZID] | 15.6 | 12.5 µM (≈ 1.71 µg/mL) | 0.8 µM (≈ 0.11 µg/mL) | – | – |
| C[C@H]1OC(=O)CCC(Cc2ccccc2)NC(=O)[C@@H](NC(=O)c2ncccc2O)[C@@H](C)OC1=O (some centres not stated) | 1 | 62.5 µM (≈ 29.3 µg/mL) | 62.5 µM (≈ 29.3 µg/mL) | – | – |
| C[C@H]1OC(=O)COC(=O)CCC(Cc2ccccc2)NC(=O)[C@H]1NC(=O)OC(C)(C)C (stereo in doubt; form 2) | 1 | – | – | 7.8 µM (≈ 3.39 µg/mL) | 7.8 µM (≈ 3.39 µg/mL) |
| C[C@H]1OC(=O)COC(=O)CCC(Cc2ccccc2)NC(=O)[C@H]1NC(=O)OC(C)(C)C (stereo in doubt; form 1) | 2 | – | – | 125 µM (≈ 54.3 µg/mL) | 62.5 µM (≈ 27.2 µg/mL) |
